Test results published in PMC9405973, “Altered Conformational Landscape upon Sensing Guanine Nucleotides in a Disease Mutant of Elongation Factor-like 1 (EFL1) GTPase” (Biomolecules, 2022).
Where “and” joins values, the source holds several entries; their conditions need not be identical. Identical values can stand only once.

Target: T1, Efl1 R1086Q•Sdo1 (Saccharomyces cerevisiae, UniProt P53893, R1086Q)
T1 construct: made in house; host or cells: Efl1: Saccharomyces cerevisiae; Sdo1: Escherichia coli C41
T1 sequence (P53893 whole entry R1086Q): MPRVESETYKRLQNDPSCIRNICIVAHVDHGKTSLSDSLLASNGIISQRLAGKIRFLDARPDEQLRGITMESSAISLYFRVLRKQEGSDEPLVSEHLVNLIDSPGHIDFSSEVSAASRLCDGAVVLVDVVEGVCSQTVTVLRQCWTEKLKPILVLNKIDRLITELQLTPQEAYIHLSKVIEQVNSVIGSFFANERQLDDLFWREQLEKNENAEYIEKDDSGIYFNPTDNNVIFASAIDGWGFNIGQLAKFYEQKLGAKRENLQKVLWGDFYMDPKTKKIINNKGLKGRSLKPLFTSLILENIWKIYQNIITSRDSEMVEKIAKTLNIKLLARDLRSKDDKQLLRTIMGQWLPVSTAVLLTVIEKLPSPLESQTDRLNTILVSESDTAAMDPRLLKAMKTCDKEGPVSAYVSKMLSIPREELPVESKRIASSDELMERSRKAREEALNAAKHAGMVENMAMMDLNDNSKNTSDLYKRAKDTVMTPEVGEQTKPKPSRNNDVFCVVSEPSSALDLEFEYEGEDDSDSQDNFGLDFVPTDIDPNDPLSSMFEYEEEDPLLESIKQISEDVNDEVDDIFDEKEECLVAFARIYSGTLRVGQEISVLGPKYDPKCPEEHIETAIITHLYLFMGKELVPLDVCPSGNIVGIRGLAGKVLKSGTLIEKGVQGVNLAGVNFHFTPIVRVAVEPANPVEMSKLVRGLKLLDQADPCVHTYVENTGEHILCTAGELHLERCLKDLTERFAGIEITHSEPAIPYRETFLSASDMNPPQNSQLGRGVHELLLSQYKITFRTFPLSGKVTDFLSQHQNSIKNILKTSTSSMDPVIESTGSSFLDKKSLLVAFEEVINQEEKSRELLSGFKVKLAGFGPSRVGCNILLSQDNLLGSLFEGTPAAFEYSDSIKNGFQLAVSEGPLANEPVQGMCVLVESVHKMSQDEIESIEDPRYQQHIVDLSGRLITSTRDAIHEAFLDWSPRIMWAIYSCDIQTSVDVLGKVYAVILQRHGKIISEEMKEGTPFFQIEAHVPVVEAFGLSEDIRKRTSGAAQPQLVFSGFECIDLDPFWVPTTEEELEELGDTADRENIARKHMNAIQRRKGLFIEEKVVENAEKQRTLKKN
T1 sequence (Q07953 whole entry, further chain): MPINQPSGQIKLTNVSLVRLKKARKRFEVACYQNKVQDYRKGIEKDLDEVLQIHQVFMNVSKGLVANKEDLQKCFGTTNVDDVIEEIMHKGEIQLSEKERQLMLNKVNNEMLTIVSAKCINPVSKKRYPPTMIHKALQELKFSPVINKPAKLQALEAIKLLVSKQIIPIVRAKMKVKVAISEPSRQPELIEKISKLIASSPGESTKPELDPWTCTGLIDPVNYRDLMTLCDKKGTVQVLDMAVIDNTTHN
Test: ITC: binding of guanine nucleotides to pre-formed complex Efl1 R1086Q•Sdo1
Settings: for ΔCpb: from ΔHb at 25–35 °C; for -TΔs / Δg / Δh / κ (heterotropic cooperativity): Effect of Mg^2+
Experimental: All calorimetric measurements were carried out using MicroCal^TM iTC200 System (GE Healthcare, Northampton, MA, USA) in a temperature range of 25–35 °C. Experiments were performed in a buffer consisting of 50 mM Tris-HCl (pH 8.0), 150 mM NaCl, 100 µM DTT, and 5% glycerol. In the titrations with Mg^2+-bound nucleotides, both the ligand and protein solutions contained 5 mM MgCl2. In the case of titrations with Mg^2+-free nucleotide, both the ligand and protein solutions were supplemented with 2 mM EDTA to sequester any residual trace of metal ions in solution. Protein samples and ligands were prepared in the exact same buffer prior to each titration. Protein concentration in the cell comprised 30–50 µM GTPase, while the ligand concentration in the syringe was 2–3 mM for GTP, MgGTP, GDP, and MgGDP. To ensure measuring the interaction of the complex Efl1 R1086Q•Sdo1 with the nucleotide, an eight-fold concentration excess of Sdo1 was used compared with that of the enzyme. […] The titration schedule consisted of 15–20 consecutive injections of the ligand with 5 min intervals between injections and a stirring rate of 700 rpm. The dilution heat of the ligand was obtained by adding the ligand to a buffer solution under identical conditions and with the same injection schedule used for the protein sample. All samples were degassed for 10 min prior to the experiment.
The binding isotherms obtained for the isolated GTPase in the presence of Mg(II) were analysed using a ternary model in which the protein can bind to the free nucleotide (G(D)TP) or that bound to one magnesium ion (MgG(D)TP); additionally, GTP may also exist in the form of Mg2GTP, which is not recognised by the protein. The derivation of this coupled-equilibria model can be reviewed in [6, 31]. The binding constant (Kb), the enthalpy change (∆Hb), and the stoichiometry (n) were obtained with the non-linear routines implemented in Origin 5.0 (OriginLab, Co., Northampton, MA, USA) using a one-binding-site model as described in [32, 33]. The heterotropic cooperativity for the binding of guanine nucleotides and Sdo1 to Efl1 R1086Q were calculated as previously described in [6, 32]. The cooperative effects of Mg(II) on the binding of guanine nucleotides to Efl1 R1086Q alone and bound to Sdo1 were calculated as follows:κ = KE-MG/KE-G κ = KES-MG/KES-G Δh = ΔHE-MG − ΔHE-G Δh = ΔHES-MG − ΔHES-G where subscripts E-MG and E-G stand for the association of the metal-bound and metal-free guanine nucleotide with mutant Efl1, respectively. Corresponding expressions applied to the heterotropic cooperativity of the binding of nucleotides to the preformed complex, Efl1•Sdo1 (ES).
The impact of Sdo1 on the binding of Efl1 R1086Q to guanine nucleotides in the presence of magnesium ions is contained in KES-MG and ΔHES-MG relative to the KE-S and ΔHE-S values; analogous ratios report the effects in the absence of Mg(II):κ = KES-MG/KE-S κ = KES-G/KE-G Δh = ΔHES-MG − ΔHE-S Δh = ΔHES-G − ΔHE-G
The corresponding cooperative entropy change was calculated as:TΔs = Δh − Δg = Δh + RTlnκ
The detailed methodology and equations to compute the changes in the accessible surface area (∆ASA) of the GTPase upon binding to nucleotides and the ∆S energetic-based parameters are reported in [6]. Briefly, the water-accessible areas (ASAs) were computed using programme NACCESS, while the changes in accessible surface area (ΔASA) upon the formation of each GTPase–nucleotide complex were estimated considering the difference between the complex and the sum of the free interacting partners. The calculated polar (ΔASAp) and apolar (ΔASAap) area changes were subsequently used to estimate the free molecular partners. […]

SMILES: Nc1nc2c(ncn2[C@@H]2O[C@H](COP(=O)(O)OP(=O)(O)OP(=O)(O)O)[C@@H](O)[C@H]2O)c(=O)[nH]1 [GTP]
- -TΔSb (+Mg^2+, 25 °C): -5.1 kcal/mol
- ΔGb (+Mg^2+, 25 °C): -6.2 kcal/mol
- ΔHb (+Mg^2+, 25 °C): -1.1 ± 0.04 kcal/mol
- -TΔSb (+Mg^2+, 30 °C): -2.9 kcal/mol
- Nconfres (number of residues changing conformation, absolute value) (+Mg^2+, 30 °C): 36
- Nconfrotb (number of routable bonds changing conformation, absolute value) (+Mg^2+, 30 °C): 47
- ΔCpconf (+Mg^2+, 30 °C): −375 cal mol^−1 K^−1
- ΔCprb (+Mg^2+, 30 °C): −25 cal mol^−1 K^−1
- ΔGb (+Mg^2+, 30 °C): -5.9 kcal/mol
- ΔHb (+Mg^2+, 30 °C): -3.0 ± 0.2 kcal/mol
- ΔSb (+Mg^2+, 30 °C): 9 cal mol^−1 K^−1
- ΔSconf (+Mg^2+, 30 °C): −78 cal mol^−1 K^−1
- ΔSsolv (+Mg^2+, 30 °C): 96 cal mol^−1 K^−1
- −ΔASAconf (+Mg^2+, 30 °C): 1683 Å^2
- -TΔSb (+Mg^2+, 35 °C): -0.9 kcal/mol
- ΔGb (+Mg^2+, 35 °C): -6.0 kcal/mol
- ΔHb (+Mg^2+, 35 °C): -5.1 ± 0.4 kcal/mol
- ΔCpb (+Mg^2+): −400 cal mol^−1 K^−1 and −400 ± 11 cal mol^−1 K^−1
- -TΔs (Efl1 R1086Q + Sdo1, 25 °C): -2.6 kcal/mol
- Δg (Efl1 R1086Q + Sdo1, 25 °C): 0.3 kcal/mol
- Δh (Efl1 R1086Q + Sdo1, 25 °C): 2.9 kcal/mol
- κ (heterotropic cooperativity) (Efl1 R1086Q + Sdo1, 25 °C): 0.6
- -TΔs (Efl1 R1086Q + Sdo1, 30 °C): -0.3 kcal/mol
- Δg (Efl1 R1086Q + Sdo1, 30 °C): 0.6 kcal/mol
- Δh (Efl1 R1086Q + Sdo1, 30 °C): 0.9 kcal/mol
- κ (heterotropic cooperativity) (Efl1 R1086Q + Sdo1, 30 °C): 0.3
- -TΔs (Efl1 R1086Q + Sdo1, 35 °C): 1.9 kcal/mol
- Δg (Efl1 R1086Q + Sdo1, 35 °C): 0.5 kcal/mol
- Δh (Efl1 R1086Q + Sdo1, 35 °C): -1.4 kcal/mol
- κ (heterotropic cooperativity) (Efl1 R1086Q + Sdo1, 35 °C): 0.5
- Kd (+Mg^2+, 25 °C): 29 ± 5 µM
- Kd (+Mg^2+, 30 °C): 58 ± 7 µM
- Kd (+Mg^2+, 35 °C): 52 ± 7 µM
- Kd (−Mg^2+, 25 °C): 17 ± 5 µM
- Kd (−Mg^2+, 30 °C): 23 ± 7 µM
- Kd (−Mg^2+, 35 °C): 25 ± 7 µM
- fold decrease in affinity of the preformed complex compared with the free enzyme (absence of magnesium ions): 2–4 times
- -TΔSb (−Mg^2+, 25 °C): -2.5 kcal/mol
- ΔGb (−Mg^2+, 25 °C): -6.5 kcal/mol
- ΔHb (−Mg^2+, 25 °C): -4.0 ± 0.2 kcal/mol
- -TΔSb (−Mg^2+, 30 °C): -2.6 kcal/mol
- Nconfres (number of residues changing conformation, absolute value) (−Mg^2+, 30 °C): 4
- Nconfrotb (number of routable bonds changing conformation, absolute value) (−Mg^2+, 30 °C): 14
- ΔCpconf (−Mg^2+, 30 °C): 41 cal mol^−1 K^−1
- ΔGb (−Mg^2+, 30 °C): -6.5 kcal/mol
- ΔHb (−Mg^2+, 30 °C): -3.9 ± 0.1 kcal/mol
- ΔSb (−Mg^2+, 30 °C): 9 cal mol^−1 K^−1
- ΔSconf (−Mg^2+, 30 °C): 24 cal mol^−1 K^−1
- ΔSsolv (−Mg^2+, 30 °C): −7 cal mol^−1 K^−1
- −ΔASAconf (−Mg^2+, 30 °C): −184 Å^2
- -TΔSb (−Mg^2+, 35 °C): -2.8 kcal/mol
- ΔGb (−Mg^2+, 35 °C): -6.5 kcal/mol
- ΔHb (−Mg^2+, 35 °C): -3.7 ± 0.4 kcal/mol
- ΔCpb (−Mg^2+): 30 cal mol^−1 K^−1 and 30 ± 6 cal mol^−1 K^−1
